Legend:
Format in all cases: biochemical
KDR (VEGFR2) = molecular target: T1, KDR (VEGFR2) (Homo sapiens, UniProt P35968); test: KDR kinase assay; settings: 8 μM ATP
T1 construct: GST; purchased ProQinase GmbH, Freiburg; host or cells: baculovirus-infected insect cells (Sf9)
Protocol: Recombinant KDR kinase-GST fusion proteins purified from baculovirus-infected insect cells (Sf9), were purchased from ProQinase GmbH, Freiburg. Poly(Glu4Tyr)n, which was used as kinase substrate, was purchased from Sigma.
KDR kinase was incubated in the presence of various concentrations of test substances (0 μM, and within the range 0.01-100 μM) in 40 μL of assay buffer [40 mM Tris/HCl pH 7.5, 10 mM MgCl2, 1 mM MnCl2, 1.0 mM dithiothreitol, 8 μM ATP, 0.025% PEG20000, 24 ng/μL poly(Glu4Tyr)n, 0.2 μCi/measurement point ^33P-gamma ATP, 1.25% dimethyl sulphoxide] at 22° C. for 10 min. The reaction was stopped by adding EDTA solution (250 mM, pH 7.5, 15 μl/measurement point). 15 μl of each reaction mixture were loaded onto P30 filter strips (from Wallac), and non-incorporated ^33P-ATP was removed by washing the filter strips three times in 0.5% strength phosphoric acid for 10 min each time.
After the filter strips had been dried at 70° C. for 1 hour, the filter strips were covered with scintillator strips (MeltiLex™ A, from Wallac) and baked at 90° C. for 1 hour. The amount of incorporated ^33P (substrate phosphorylation) was determined by scintillation measurement in a gamma radiation counter (Wallac).
(§1) The measured data were normalized to 0% inhibition (enzyme reaction without inhibitor) and 100% inhibition (all assay components except enzyme). The IC50 values were determined by means of a 4-parameter fit using the company's own software.

CDK1/CycB = molecular target: T2, CDK1/CycB (Homo sapiens, UniProt P06493); test: CDK1/CycB kinase assay; settings: 0.5 μM ATP
T2 construct: GST; purchased ProQinase GmbH, Freiburg; host or cells: baculovirus-infected insect cells (Sf9)
T2 sequence (P06493 whole entry): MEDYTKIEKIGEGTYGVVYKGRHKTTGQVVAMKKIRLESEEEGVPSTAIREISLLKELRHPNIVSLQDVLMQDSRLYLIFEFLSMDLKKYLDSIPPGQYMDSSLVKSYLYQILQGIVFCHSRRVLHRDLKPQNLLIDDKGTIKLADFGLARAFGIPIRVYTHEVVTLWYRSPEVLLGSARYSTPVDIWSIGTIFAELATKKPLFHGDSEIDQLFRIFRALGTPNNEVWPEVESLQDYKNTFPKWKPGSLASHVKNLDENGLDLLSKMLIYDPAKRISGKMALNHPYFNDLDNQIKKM
T2 sequence (P14635 whole entry partner): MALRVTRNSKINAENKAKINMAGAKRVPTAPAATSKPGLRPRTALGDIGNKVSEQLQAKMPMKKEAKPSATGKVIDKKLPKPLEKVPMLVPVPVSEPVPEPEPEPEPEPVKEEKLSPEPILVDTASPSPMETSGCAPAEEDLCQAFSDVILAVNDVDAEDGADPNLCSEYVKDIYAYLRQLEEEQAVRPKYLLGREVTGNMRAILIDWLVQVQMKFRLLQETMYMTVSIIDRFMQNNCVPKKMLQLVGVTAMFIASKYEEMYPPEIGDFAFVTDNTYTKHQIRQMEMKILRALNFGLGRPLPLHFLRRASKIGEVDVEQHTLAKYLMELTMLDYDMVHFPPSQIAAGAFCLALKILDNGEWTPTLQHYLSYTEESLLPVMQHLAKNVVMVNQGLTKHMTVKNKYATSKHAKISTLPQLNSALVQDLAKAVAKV
Protocol: Recombinant CDK1- and CycB-GST fusion proteins, purified from baculovirus-infected insect cells (Sf9), were purchased from ProQinase GmbH, Freiburg. The histone IIIS used as kinase substrate can be purchased from Sigma.
CDK1/CycB (5 ng/μL) was incubated in the presence of various concentrations of test substances (0 μM, and within the range 0.01-100 μM) in 40 μL of assay buffer [50 mM Tris/HCl pH 8.0, 10 mM MgCl2, 0.1 mM Na ortho-vanadate, 1.0 mM dithiothreitol, 0.025% PEG 20000, 0.5 μM ATP, 10 μM histone IIIS, 0.2 μCi/measurement point ^33P-gamma ATP, 0.05% NP40, 1.25% dimethyl sulphoxide] at 22° C. for 10 min. The reaction was stopped by adding EDTA solution (250 mM, pH 8.0, 15 μl/measurement point). 15 μl of each reaction mixture were loaded onto P30 filter strips (from Wallac), and non-incorporated ^33P-ATP was removed by washing the filter strips three times in 0.5% strength phosphoric acid for 10 min each time. After the filter strips had been dried at 70° C. for 1 hour, the filter strips were covered with scintillator strips (MeltiLex™ A, from Wallac) and baked at 90° C. for 1 hour. The amount of incorporated ^33P (substrate phosphorylation) was determined by scintillation measurement in a gamma radiation counter (Wallac).
as §1

human Aurora-C = molecular target: T3, human Aurora-C (Homo sapiens, UniProt Q9UQB9); test: Aurora-C kinase assay (HTRF); settings: 10 μM ATP
T3 construct: GST; made in house; host or cells: transiently transfected HEK293 cells
T3 sequence (Q9UQB9 1-309): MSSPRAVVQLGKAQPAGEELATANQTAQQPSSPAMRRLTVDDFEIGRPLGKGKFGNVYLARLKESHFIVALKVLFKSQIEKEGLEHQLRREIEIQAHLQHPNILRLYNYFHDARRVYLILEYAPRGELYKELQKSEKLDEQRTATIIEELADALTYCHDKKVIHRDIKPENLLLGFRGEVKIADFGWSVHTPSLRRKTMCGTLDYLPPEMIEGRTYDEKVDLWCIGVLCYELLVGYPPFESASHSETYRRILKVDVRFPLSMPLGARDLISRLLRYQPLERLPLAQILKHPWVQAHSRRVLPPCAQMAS
Protocol: The Aurora-C inhibitory activity of the substances of this invention was measured in the Aurora-C-HTRF assay (HTRF=Homogeneous Time Resolved Fluorescence) described in the following paragraphs.
Recombinant fusion protein of GST and human Aurora-C was expressed in transiently transfected HEK293 cells and purified by affinity chromatography on glutathione-Sepharose. The substrate used for the kinase reaction was the biotinylated peptide biotin-Ttds-FMRLRRLSTKYRT (C terminus in amide form) which can be purchased for example from JERINI Peptide Technologies (Berlin). Aurora-C was incubated in the presence of various concentrations of test substances in 5 μL of assay buffer [25 mM Hepes/NaOH pH 7.4, 0.5 mM MnCl2, 2.0 mM dithiothreitol, 0.1 mM sodium orthovanadate, 10 μM adenosine triphosphate (ATP), […] substrate, 0.01% (v/v) TritonX-100 (Sigma), 0.05% (w/v) bovine serum albumin (BSA), 1% (v/v) dimethyl sulphoxide] at 22° C. for 60 min. The concentration of Aurora-C was adapted to the particular activity of the enzyme and adjusted so that the assay operated in the linear range. Typical concentrations were in the region of 0.3 nM. The reaction was stopped by adding 5 μl of a solution of HTRF detection reagents (0.2 μM streptavidin-XLent and 1.4 nM anti-phospho-(Ser/Thr)-Akt substrate-Eu-cryptate (Cis biointernational, France, product No. 61P02KAE), a Europium-cryptate-labelled phospho-(Ser/Thr)-Akt substrate antibody [product #9611B, Cell Signaling Technology, Danvers, Mass., USA]) in aqueous EDTA solution (40 mM EDTA, 400 mM KF, 0.05% (w/v) bovine serum albumin (BSA) in 25 mM HEPES/NaOH pH 7.0).
The resulting mixture was incubated at 22° C. for 1 h in order to allow formation of a complex of the biotinylated phosphorylated substrate and the detection reagents. The amount of phosphorylated substrate was then estimated by measuring the resonance energy transfer from the anti-phospho-(Ser/Thr)-Akt substrate-Eu cryptate to the streptavidin-XLent. For this purpose, the fluorescence emissions at 620 nm and 665 nm after excitation at 350 nm were measured in an HTRF measuring instrument, e.g. a Rubystar (BMG Labtechnologies, Offenburg, Germany) or a Viewlux (Perkin-Elmer). The ratio of the emissions at 665 nm and at 622 nm was taken as a measure of the amount of phosphorylated substrate. The data were normalized (enzymic reaction without inhibitor=0% inhibition, all other assay components but no enzyme=100% inhibition) and IC50 values were calculated with a 4-parameter fit using an inhouse software.

T1 sequence (P35968 807-1356 limits assumed): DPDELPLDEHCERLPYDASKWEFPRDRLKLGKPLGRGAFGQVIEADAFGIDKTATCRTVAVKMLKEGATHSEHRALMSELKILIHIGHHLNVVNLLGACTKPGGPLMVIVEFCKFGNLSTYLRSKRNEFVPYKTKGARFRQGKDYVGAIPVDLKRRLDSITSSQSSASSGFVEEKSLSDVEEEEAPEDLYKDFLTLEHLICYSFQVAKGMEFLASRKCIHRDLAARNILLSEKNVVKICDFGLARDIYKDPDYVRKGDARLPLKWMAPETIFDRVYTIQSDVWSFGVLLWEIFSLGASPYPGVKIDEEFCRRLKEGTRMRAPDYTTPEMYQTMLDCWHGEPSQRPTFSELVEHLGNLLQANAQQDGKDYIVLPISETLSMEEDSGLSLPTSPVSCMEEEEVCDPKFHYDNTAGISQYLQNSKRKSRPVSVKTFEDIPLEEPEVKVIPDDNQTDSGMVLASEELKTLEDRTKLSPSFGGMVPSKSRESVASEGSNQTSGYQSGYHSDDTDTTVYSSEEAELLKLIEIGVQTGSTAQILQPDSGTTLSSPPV

Cc1ccc(Nc2ncc(Br)c(N[C@H](C)[C@@H](C)O)n2)cc1NC(=O)N=S(C)(C)=O [Example 8, N-({5-[(5-Bromo-4-{[(1R,2R)-2-hydroxy-1-methylpropyl]amino}pyrimidin-2-yl)amino]-2-methylphenyl}carbamoyl)-S,S-dimethylsulphoximide]
IC50 (KDR (VEGFR2)): 130 nM
IC50 (CDK1/CycB): 21 nM
IC50 (human Aurora-C): 810 nM

C[C@@H](Nc1nc(Nc2ccc(NC(=O)N=S(C)(C)=O)cc2)ncc1Br)C(C)(C)O [Example 2, N-({4-[(5-Bromo-4-{[(R)-2-hydroxy-1,2-dimethylpropyl]amino}pyrimidin-2-yl)-amino]phenyl}carbamoyl)-S,S-dimethylsulphoximide]
IC50 (KDR (VEGFR2)): 230 nM
IC50 (CDK1/CycB): 21 nM
IC50 (human Aurora-C): 400 nM

CS(C)(=O)=NC(=O)Nc1ccc(Nc2ncc(Br)c(Nc3ccc4[nH]cnc4c3)n2)cc1 [Example 16, N-[(4-{[4-(1H-Benzimidazol-5-ylamino)-5-bromopyrimidin-2-yl]amino}phenyl)-carbamoyl]-S,S-dimethylsulphoximide]
IC50 (KDR (VEGFR2)): 64 nM
IC50 (CDK1/CycB): 140 nM
IC50 (human Aurora-C): 400 nM

C[C@@H](O)[C@@H](C)Oc1nc(Nc2cccc(NC(=O)N=S(C)(C)=O)c2)ncc1Br [Example 6, N-({3-[(5-Bromo-4-{[(1R,2R)-2-hydroxy-1-methylpropyl]oxy}pyrimidin-2-yl)amino]phenyl}carbamoyl)-S,S-dimethylsulphoximide]
IC50 (KDR (VEGFR2)): 130 nM
IC50 (CDK1/CycB): 7 nM
IC50 (human Aurora-C): 73 nM

C[C@@H](Nc1nc(Nc2ccc(C(=O)N=S(C)(C)=O)cc2)ncc1Br)C(C)(C)O [Example 19, N-{4-[(5-Bromo-4-{[(R)-2-hydroxy-1,2-dimethylpropyl]amino}pyrimidin-2-yl)amino]benzoyl}S,S-dimethylsulphoximide]
IC50 (KDR (VEGFR2)): 120 nM
IC50 (CDK1/CycB): 42 nM
IC50 (human Aurora-C): 740 nM

C[C@@H](O)[C@@H](C)Nc1nc(Nc2ccc(Cl)c(NC(=O)N=S(C)(C)=O)c2)ncc1Br [Example 12, N-({5-[(5-Bromo-4-{[(1R,2R)-2-hydroxy-1-methylpropyl]amino}pyrimidin-2-yl)amino]-2-chlorophenyl}carbamoyl)-S,S-dimethylsulphoximide]
IC50 (KDR (VEGFR2)): 350 nM
IC50 (CDK1/CycB): 18 nM
IC50 (human Aurora-C): 1300 nM

C[C@@H](Nc1nc(Nc2cccc(NC(=O)N=S(C)(C)=O)c2)ncc1Br)C(C)(C)O [Example 1, N-({3-[(5-Bromo-4-{[(R)-2-hydroxy-1,2-dimethylpropyl]amino}pyrimidin-2-yl)amino]phenyl}carbamoyl)-S,S-dimethylsulphoximide]
IC50 (KDR (VEGFR2)): 170 nM
IC50 (CDK1/CycB): 24 nM
IC50 (human Aurora-C): 160 nM

C[C@@H](O)[C@@H](C)Nc1nc(Nc2ccc(NC(=O)N=S(C)(C)=O)cc2)ncc1Br [Example 3, N-({4-[(5-Bromo-4-{[(1R,2R)-2-hydroxy-1-methylpropyl]amino}pyrimidin-2-yl)amino]phenyl}carbamoyl)-S,S-dimethylsulphoximide]
IC50 (KDR (VEGFR2)): 120 nM
IC50 (CDK1/CycB): 7 nM
IC50 (human Aurora-C): 280 nM

C[C@@H](O)[C@@H](C)Nc1nc(Nc2ccc(C(=O)N=S(C)(C)=O)cc2)ncc1Br [Example 18, N-{4-[(5-Bromo-4-{[(1R,2R)-2-hydroxy-1-methylpropyl]amino}pyrimidin-2-yl)amino]benzoyl}-S,S-dimethylsulphoximide]
IC50 (KDR (VEGFR2)): 61 nM
IC50 (CDK1/CycB): 18 nM
IC50 (human Aurora-C): 280 nM

C[C@@H](O)[C@@H](C)Nc1nc(Nc2cccc(NC(=O)N=S(C)(C)=O)c2)ncc1Br [Example 5, N-({3-[(5-Bromo-4-{[(1R,2R)-2-hydroxy-1-methylpropyl]amino}pyrimidin-2-yl)amino]phenyl}carbamoyl)-S,S-dimethylsulphoximide]
IC50 (KDR (VEGFR2)): 63 nM
IC50 (CDK1/CycB): 10 nM
IC50 (human Aurora-C): 54 nM

C[C@@H](O)[C@@H](C)Oc1nc(Nc2ccc(C(=O)N=S(C)(C)=O)cc2)ncc1Br [Example 20, N-{4-[(5-Bromo-4-{[(1R,2R)-2-hydroxy-1-methylpropyl]oxy}pyrimidin-2-yl)amino]benzoyl}-S,S-dimethylsulphoximide]
IC50 (KDR (VEGFR2)): 96 nM
IC50 (CDK1/CycB): 17 nM
IC50 (human Aurora-C): 310 nM

C[C@@H](O)[C@@H](C)Nc1nc(Nc2cccc(C(=O)N=S(C)(C)=O)c2)ncc1Br [Example 17, N-{3-[(5-Bromo-4-{[(1R,2R)-2-hydroxy-1-methylpropyl]amino}pyrimidin-2-yl)amino]benzoyl}-S,S-dimethylsulphoximide]
IC50 (KDR (VEGFR2)): 330 nM
IC50 (CDK1/CycB): 10 nM
IC50 (human Aurora-C): 2000 nM

C[C@@H](O)[C@@H](C)Oc1nc(Nc2ccc(NC(=O)N=S(C)(C)=O)cc2)ncc1Br [Example 4, N-({4-[(5-Bromo-4-{[(1R,2R)-2-hydroxy-1-methylpropyl]oxy}pyrimidin-2-yl)amino]phenyl}carbamoyl)-S,S-dimethylsulphoximide]
IC50 (KDR (VEGFR2)): 160 nM
IC50 (CDK1/CycB): 5 nM
IC50 (human Aurora-C): 420 nM

C[C@@H](O)[C@@H](C)Nc1nc(Nc2ccc(F)c(NC(=O)N=S(C)(C)=O)c2)ncc1Br [Example 7, N-({5-[(5-Bromo-4-{[(1R,2R)-2-hydroxy-1-methylpropyl]amino}pyrimidin-2-yl)amino]-2-fluorophenyl}carbamoyl)-S,S-dimethylsulphoximide]
IC50 (KDR (VEGFR2)): 300 nM
IC50 (CDK1/CycB): 10 nM
IC50 (human Aurora-C): 370 nM

C[C@@H](O)[C@@H](C)Nc1nc(Nc2ccc(NC(=O)N=S(C)(C)=O)cc2)ncc1C(F)(F)F [Example 15]
IC50 (KDR (VEGFR2)): 1100 nM
IC50 (CDK1/CycB): 15 nM
IC50 (human Aurora-C): 150 nM

COc1ccc(Nc2ncc(Br)c(N[C@H](C)[C@@H](C)O)n2)cc1NC(=O)N=S(C)(C)=O [Example 10, N-({5-[(5-Bromo-4-{[(1R,2R)-2-hydroxy-1-methylpropyl]amino}pyrimidin-2-yl)amino]-2-methoxyphenyl}carbamoyl)-S,S-dimethylsulphoximide]
IC50 (KDR (VEGFR2)): 320 nM
IC50 (CDK1/CycB): 26 nM
IC50 (human Aurora-C): 410 nM
